For 2 compounds, IC50 results are on record in article PMC7411652 (Sensors (Basel, Switzerland), 2020).

The structures appear in SMILES notation. Like-named read-outs stand apart in the source and are kept apart here.

The target in one data set is T1, CYP1A1 enzyme (Homo sapiens, UniProt P04798).
T1 construct: expressed in transfected cells; host or cells: Saccharomyces cerevisiae W303-1A derived strains yRD+ (+CPR) and yRD-::Bax (-CPR)
T1 sequence (P04798 1-512): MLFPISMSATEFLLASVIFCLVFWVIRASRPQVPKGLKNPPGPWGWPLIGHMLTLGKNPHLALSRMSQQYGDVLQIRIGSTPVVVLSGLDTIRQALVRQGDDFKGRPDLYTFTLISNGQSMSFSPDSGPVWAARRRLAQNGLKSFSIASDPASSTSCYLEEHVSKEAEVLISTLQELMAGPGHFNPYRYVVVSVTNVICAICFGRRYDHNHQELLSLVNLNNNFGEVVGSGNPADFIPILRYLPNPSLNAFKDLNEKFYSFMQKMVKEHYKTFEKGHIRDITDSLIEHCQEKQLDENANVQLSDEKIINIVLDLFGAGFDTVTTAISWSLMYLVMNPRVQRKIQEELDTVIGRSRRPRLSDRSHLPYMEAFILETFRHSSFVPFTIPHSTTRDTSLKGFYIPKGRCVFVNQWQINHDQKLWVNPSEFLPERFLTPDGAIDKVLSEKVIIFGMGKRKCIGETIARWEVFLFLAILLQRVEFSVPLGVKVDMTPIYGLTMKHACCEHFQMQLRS
As to the kind of experiment: Live-cell IC50 determination, CYP1A1 expressed in yeast cells, 7-ethoxyresorufin (7-ER) substrate. The data set is classed as cell-based. As to conditions: 1 × 10^7 cells, 10 min incubation. The protocol: The IC50 values were calculated using the GraphPad Prism software.

Another data set has as its system CYP1A1 Supersomes. Conditions: read-out: IC50 for inhibition of CYP1A1 Supersomes; insect cell-derived microsomes, Corning-Gentest; cited from earlier work.
The next data set has as its system CYP1A2 Supersomes. Further details: method as in PMID 19359406. Conditions: insect cell-derived microsomes, Corning-Gentest, 10 min incubation with microsomal enzyme; read-out: IC50 for inhibition of CYP1A2 Supersomes; cited from earlier work.

Take `O=c1cc(-c2ccccc2)oc2c1ccc1ccccc12` [ANF, Alpha-naphthoflavone]: the IC50 on CYP1A1 enzyme (live yeast strain yRD+ (+CPR), read-out: IC50 for inhibition of CYP1A1 in yRD+ cells) is 20.8 nM; on CYP1A1 enzyme (live yeast strain yRD−:: Bax (–CPR), read-out: IC50 for inhibition of CYP1A1 in yRD- cells), 21.3 nM; in the data set with CYP1A1 Supersomes it was 18 nM.

In the case of `Cc1nc2c([nH]1)c(=O)n(C)c(=O)n2Cc1ccco1` [Furafylline], the IC50 in the data set with CYP1A2 Supersomes was 6100 nM.

As a reminder, the IC50 is the concentration that inhibits the measured activity by half.
